Data: paper PMC12414742, “Amphipathic Octenyl‐Alanine Modified Peptides Mediate Effective siRNA Delivery” (Journal of Peptide Science, 2025)
Where no end group is shown, it is not given here.

How the values were obtained:
[1] = cited from earlier work
From the text: Given that the differences in the peptide hydrophobicity and amphipathicity come from the number of carbons introduced by the alanine and alkenyl‐alanine side chains: three carbons for Ctrl peptide, 13 and 17 for hPep1 an ...

[2] = CD spectroscopy, secondary structure estimation; type: physicochemical; details: CD in MQ water, 100 μM peptide, 25°C, Reed's estimation; for proportion of alpha helical structure: 1-mm cuvette
Experimental: CD spectra were recorded on a Jasco J‐1500 CD spectrometer (Jasco, Japan) at 25°C at a concentration of 100 μM. Peptides were dissolved in MQ water and measured using 1‐mm pathlength quartz cuvette. The secondary structure estimates were calculated on the “Protein Secondary Structure Estimation” plugin in the Spectra Manager 2.13 software by using Reed's estimation.

[3] = system: siRNA; assay: Heparin displacement assay (complex stability); type: physicochemical; details: peptide/siRNA complexes at MR30 in MQ water, heparin at different concentrations, 15 min RT, SYBR Gold fluorescence, n = 3 in duplicates
Experimental: For the heparin displacement assay, peptide/siRNA complexes were formed in MQ water at MR30. Fifty microliters of complexes was then transferred to each well of a black 96‐well plate and mixed with 100 μL of 2X SYBR Gold dye (Thermo Fisher Scientific, USA), incubated, and then 50 μL of heparin (Sigma‐Aldrich, USA) solution with different concentrations was added. After 15 min at RT, the fluorescence was measured by Synergy Mx Microplate Reader (BioTek, USA) (ex = 495 nm, em = 537 nm) to determine the amount of accessible siRNA in the complexes. The data was normalized to the fluorescence of free siRNA (defined as 100%) and are expressed as a percentage of accessible siRNA. The results are shown as mean ± SEM of n = 3 in duplicates.

[4] = DLS size, PDI and zeta potential of peptide/siRNA complexes; type: physicochemical
Experimental: The physicochemical properties (nanoparticle size, polydispersity index [PDI], and zeta potential) of peptide/siLuc complexes were measured by DLS (dynamic light scattering) using the Zetasizer Nano ZS apparatus (Malvern Instruments, UK).
The size and zeta potential of peptide/siLuc particles were measured at MR30 for hPep1, hPep2, and Ctrl peptide. For hPep3, measurements were also taken at different MRs (5–35). The complexes were formulated in 50 μL at a 2 μM final siRNA concentration for size measurement. The average diameter was obtained from three technical replicates, and one measurement was set to five runs (run duration 8 s) in disposable ZEN0040 cuvettes (Malvern Instruments, UK).
To measure the zeta potential, the complexes were diluted eight times in 10 mM HEPES 7.4 buffer. The zeta potential was obtained from three technical measurements in disposable DTS1070 cuvettes (Malvern Instruments, UK) with the number of runs set to automatic. The results are shown as an average of three separate experiments (mean ± SEM). All measurements were performed at 22°C.

[5] = system: bovine red blood cells; assay: Hemolysis (erythrocyte leakage) assay; type: cell-based; details: peptide alone 10 μM, 2% RBCs in HBG pH 5.5, 37°C, 1 h, absorbance 450 nm, n = 3 in triplicates
Experimental: The hemolysis experiments were carried out with bovine red blood cells (RBCs) (Håtunalab, Sweden). The cells were washed three times with HBG 7.4 and then diluted to a final concentration of 2% RBCs in HBG with noted pH. Ten microliters of peptides was added to 190 μL of cells in PCR plates and shaken at 37°C for 1 h. Then the cells were spun down at 500 × g, and 100 μL of supernatant was transferred to transparent 96‐well tissue culture plates. The absorbance of released hemoglobin was measured at 450 nm on a plate reader (Tecan Sunrise, Switzerland). As a positive control, 10% Triton X‐100 was used, while HBG served as a negative control. The percentage of hemolysis was calculated by the formula: hemolysis (%) = [(AS − AN)/(AP − AN)] × 100, where AS is the absorbance for the sample, AP for positive control, and AN for negative control. The results are shown as mean ± SEM of n = 3, done in triplicates.

[6] = DLS, peptide/siLuc complexes at MR30, 2 μM siRNA, 22°C, mean of n = 3

Substance | order of hydrophobicity of the peptides [1] | proportion of alpha helical structure [2] | random structure estimate [2] | stability of the NPs against heparin (siRNA release) [3] | PDI [4, 6] | NP size (hydrodynamic diameter) [4, 6] | zeta potential of the complexes ([4]; all tested MRs (5-35)) | zeta potential ([4]; peptide/siLuc complexes at MR30, diluted eight times in 10 mM HEPES 7.4, 22°C, mean of n = 3) | hemolytic (lytic) activity [5]
H‐LAKLAKA{R8}AKLLKA{S5}AKAL‐NH2 [hPep1, C-terminally amidated amphipathic CPP with one octenyl- and one pentenyl-alanine] | hPep1 < hPep2 < hPep3 | 15% | > 60% | Ctrl < hPep1 < hPep2 < hPep3 | 0.265 |  |  |  | 
LAKLAKAAAKLLKAAAKAL-NH2 [Ctrl] |  | zero | > 60% | Ctrl < hPep1 < hPep2 < hPep3 |  | ~ 2000 nm | stayed negative at all tested MRs | −23.7 mV | almost no activity
